Measurements published in patent US4058523A, “Bis(benzamido)-benzene derivatives” (Chugai Seiyaku Kabushiki Kaisha, priority 1974, dated 1977).
Where a name gives a salt, the structure may show the parent alone.

Tests used:
[1] = tested on: stress-induced ulcer formation; test: Inhibitory action on stress-induced ulcer formation; type: in vivo, Sprague-Dawley strain male rats; conditions: oral, rats; for Number of Ulcers/Stomach, 3 mm or larger / Number of Ulcers/Stomach, up to 3 mm: 10 minutes before stress; for Ulcer Index (mean value ± standard deviation): Ulcer Index = a + b/10, Control 6.1 ± 2.3; for inhibition in vivo at 100 mg/kg: Rattus norvegicus, 16 h, stress-induced ulcer, read-out: Percent Inhibition
Experimental: Action on stress-induced ulcer formation
Sprague-Dawley strain male rats weighing 200-250 g were deprived of food for 24 hours, and then laid down on their backs on a screen and fixed by fastening their limbs with a strand. The fixed rats were submerged in water bath to the depth of ensiform process with their hind legs dipped first. Sixteen hours after the submergence, the rats were brought out from the bath and their stomachs were taken out. After light fixation with a 1% formalin aqueous solution, the stomach of each animal was cut open along their greater curvature and gastric mucosa was observed through a dissecting microscope. The ulcer was evaluated on an ulcer index calculated from the following equation: […]
wherein a is the number of big ulcers more than 3 mm in diameter and b is the number of small ulcers up to 3 mm in diameter.
A test compound was orally administered as a suspension in a 1% gum arabic aqueous solution, 10 minutes before exposure to stress.

Acute toxicity in mice = conditions: mouse, in vivo
Experimental: Acute toxicity of 1-(3'-dimethylaminopropoxy)-2,4-bis(2"-methylbenzamido)-benzene, 1-(3'-dimethylaminopropoxy)-2,4-bis(3"-methylbenzamido)-benzene, 1-[N-(3-dimethylaminopropyl)-carbamoyl]-2,4-bis(2"-methylbenzamido)-benzene and 1-[N-(3'-dimethylaminopropyl)-carbamoyl]-2,4-bis(3"-methylbenzamido)-benzene were observed by the use of ddY strain male mice (5 weeks old) which were administered orally or intravenously with one of the compounds.
In the case of intravenous administration, the hydrochloride of test compound was dissolved in a physiological saline solution and administered by injecting into a vein of the tail. LD50 was determined by the "Up and Down" method.
When the administration was effected orally, the test compound was suspended in a 1% gum arabic aqueous solution and the suspension was administered orally by gavage. LD50 was determined by the Litchfield and Wilcoxon method or Miller and Tainter method based on death rate of each group of […] 10 days after the administration of the compound.

[2] = tested on: pylorus ligature ulcer formation; test: Protective action on pylorus ligature ulcer formation; type: in vivo, Sprague-Dawley strain male rats; conditions: in the duodenum, rats; for Percent Death Rate / Percent Perforating Ulcers: 16 hours after pylorus ligature
Experimental: Protective Action on pylorus ligature ulcer formation
The pylorus of Sprague-Dawley strain male rats weighing 150-200 g that had abstained from food, but not water for 48 hours was ligatured under ether anethsia. Each rat was allowed to stand individually in a cage for 16 hours without food and water. At the end of this term, the rats were sacrificed by an overdose of diethyl ether. The stomach was taken out of each animal and the gastric mucosa was observed by the use of a dissecting microscope.
Ulcers observed in the gastric mucosa were evaluated on a scale of from 0 to 5 defined as follows.
0: No lesion was observed.
1: Hemorrhage and/or erosion were observed.
2: One to five small ulcers less than 3 mm in diameter were observed.
3: Six or more small ulcers and/or a large ulcer more than 3 mm in diameter were observed.
4: Two or more large ulcers were observed.
5: At least one perforating ulcer was observed.
A test compound was administered as an aqueous solution in an equivalent molar of hydrochloric acid in the duodenum immediately after the pylorus ligature.

[3] = iv, hydrochloride in physiological saline, Up and Down Method
[4] = oral, 1% gum arabic suspension, 10 days, Litchfield and Wilcoxon Method

SMILES	Number of Ulcers/Stomach, 3 mm or larger ([1]; 100 mg/kg)	Number of Ulcers/Stomach, up to 3 mm ([1]; 100 mg/kg)	Ulcer Index (mean value ± standard deviation) ([1]; 100 mg/kg)	inhibition in vivo at 100 mg/kg ([1]; 100 mg/kg)	also measured
CCN(CC)CCCOc1ccc(NC(=O)c2ccccc2OC)cc1NC(=O)c1ccccc1OC [1-(3'-diethylaminopropoxy)-2,4-bis(2"-methoxybenzamido)-benzene]	0.8	8	1.5 ± 2.4	76%	–
CCN(CC)CCCOc1ccc(NC(=O)c2ccccc2C)cc1NC(=O)c1ccccc1C [1-(3'-diethylaminopropoxy)-2,4-bis(2"-methylbenzamido)-benzene]	0	6	0.5 ± 1.0	92%	–
CCN(CC)CCCOc1ccc(NC(=O)c2cccc(C)c2)cc1NC(=O)c1cccc(C)c1 [1-(3'-diethylaminopropoxy)-2,4-bis(3"-methylbenzamido)-benzene]	0.3	6	0.8 ± 1.0	87%	–
CCN(CC)CCCOc1ccc(NC(=O)c2ccc(C)cc2)cc1NC(=O)c1ccc(C)cc1 [1-(3'-diethylaminopropoxy)-2,4-bis(4"-methylbenzamido)-benzene]	1.3	17	3.0 ± 0.8	52%	–
COc1ccccc1C(=O)Nc1ccc(OCCCN(C)C)c(NC(=O)c2ccccc2OC)c1 [1-(3'-dimethylaminopropoxy)-2,4-bis(2"-methoxybenzamido)-benzene trihydrochloride]	0.5	13	1.8 ± 2.4	71%	–
Cc1ccccc1C(=O)Nc1ccc(OCCCN(C)C)c(NC(=O)c2ccccc2C)c1 [1-(3'-dimethylaminopropoxy)-2,4-bis(2"-methylbenzamido)-benzene]	–	4	–	–	LD50 (Acute toxicity in mice; [3]): 42 mg/kg; LD50 (Acute toxicity in mice; [4]): 2520 mg/kg; Percent Death Rate ([2]; 50 mg/kg): 20%; Percent Perforating Ulcers ([2]; 50 mg/kg): 20%; Percent Death Rate ([2]; 100 mg/kg): 0%; Percent Perforating Ulcers ([2]; 100 mg/kg): 0%; Percent Death Rate ([2]; 200 mg/kg): 0%; Percent Perforating Ulcers ([2]; 200 mg/kg): 0%; Number of Ulcers/Stomach, up to 3 mm ([1]; 30 mg/kg): 23; Number of Ulcers/Stomach, up to 3 mm ([1]; 45 mg/kg): 17; Number of Ulcers/Stomach, up to 3 mm ([1]; 67 mg/kg): 9
Cc1cccc(C(=O)Nc2ccc(OCCCN(C)C)c(NC(=O)c3cccc(C)c3)c2)c1 [1-(3'-dimethylaminopropoxy)-2,4-bis(3"-methylbenzamido)-benzene]	–	11	–	–	LD50 (Acute toxicity in mice; [3]): 38 mg/kg; LD50 (Acute toxicity in mice; [4]): 4700 mg/kg; Percent Death Rate ([2]; 50 mg/kg): 33%; Percent Perforating Ulcers ([2]; 50 mg/kg): 50%; Percent Death Rate ([2]; 100 mg/kg): 0%; Percent Perforating Ulcers ([2]; 100 mg/kg): 0%; Percent Death Rate ([2]; 200 mg/kg): 0%; Percent Perforating Ulcers ([2]; 200 mg/kg): 0%; Percent Inhibition ([2]; 200 mg/kg, 16 hours, ulcer index vs control): 75%; Number of Ulcers/Stomach, up to 3 mm ([1]; 30 mg/kg): 21; Number of Ulcers/Stomach, up to 3 mm ([1]; 45 mg/kg): 9; Number of Ulcers/Stomach, up to 3 mm ([1]; 67 mg/kg): 7
CCN(CC)CCCCOc1ccc(NC(=O)c2ccccc2OC)cc1NC(=O)c1ccccc1OC [1-(4'-diethylaminobutoxy)-2,4-bis(2"methoxybenzamido)-benzene]	0.8	11	1.8 ± 1.5	71%	–
Cc1ccccc1C(=O)Nc1ccc(OCCCCN(C)C)c(NC(=O)c2ccccc2C)c1 [1-(4'-dimethylaminobutoxy)-2,4-bis(2"-methylbenzamido)-benzene]	0.2	6	1.0 ± 0.6	85%	–
Cc1cccc(C(=O)Nc2ccc(OCCCCN(C)C)c(NC(=O)c3cccc(C)c3)c2)c1 [1-(4'-dimethylaminobutoxy)-2,4-bis(3"-methylbenzamido)-benzene]	0.5	8	1.2 ± 1.6	82%	–
CCN(CC)CCCNC(=O)c1ccc(NC(=O)c2cccc(C)c2)cc1NC(=O)c1cccc(C)c1 [1-[N(3'-diethylaminopropyl)-carbamoyl]-2,4-bis(3"-methylbenzamido)-benzene]	0	12	1.0 ± 0.6	85%	–
CCN(CC)CCNC(=O)c1ccc(NC(=O)c2ccccc2OC)cc1NC(=O)c1ccccc1OC [1-[N-(2'-diethylaminoethyl)-carbamoyl]-2,4-bis(2"-methoxybenzamido)-benzene hydrochloride]	1.1	12	3.8 ± 2.3	40%	–
CCN(CC)CCNC(=O)c1ccc(NC(=O)c2ccccc2C)cc1NC(=O)c1ccccc1C [1-[N-(2'-diethylaminoethyl)-carbamoyl]-2,4-bis(2"-methylbenzamido)-benzene]	1.2	29	4.2 ± 0.4	38%	–
CCN(CC)CCNC(=O)c1ccc(NC(=O)c2cccc(C)c2)cc1NC(=O)c1cccc(C)c1 [1-[N-(2'-diethylaminoethyl)-carbamoyl]-2,4-bis(3"-methylbenzamido)-benzene]	1.3	27	4.0 ± 2.6	46%	–
CCN(CC)CCNC(=O)c1ccc(NC(=O)c2ccc(C)cc2)cc1NC(=O)c1ccc(C)cc1 [1-[N-(2'-diethylaminoethyl)-carbamoyl]-2,4-bis(4"-methylbenzamido)-benzene]	1.4	26	4.0 ± 1.4	40%	–
CCN(CC)CCNC(=O)c1cc(NC(=O)c2ccccc2OC)cc(NC(=O)c2ccccc2OC)c1 [1-[N-(2'-diethylaminoethyl)-carbamoyl]-3,5-bis(2"-methoxybenzamido)-benzene hydrochloride]	3.0	13	4.3 ± 2.2	33%	–
CCN(CC)CCCNC(=O)c1ccc(NC(=O)c2ccccc2OC)cc1NC(=O)c1ccccc1OC [1-[N-(3'-diethylaminopropyl)-carbamoyl]-2,4-bis(2"-methoxybenzamido)-benzene]	0	11	1.3 ± 0.5	80%	–
Cc1ccccc1C(=O)Nc1ccc(C(=O)NCCCN(C)C)c(NC(=O)c2ccccc2C)c1 [1-[N-(3'-dimethylaminopropyl)-carbamoyl]-2,4-bis(2"-methylbenzamido)-benzene]	–	23	–	–	LD50 (Acute toxicity in mice; [3]): 111 mg/kg; Percent Death Rate ([2]; 200 mg/kg): 0%; Percent Perforating Ulcers ([2]; 200 mg/kg): 0%
Cc1cccc(C(=O)Nc2ccc(C(=O)NCCCN(C)C)c(NC(=O)c3cccc(C)c3)c2)c1 [1-[N-(3'-dimethylaminopropyl)-carbamoyl]-2,4-bis(3"-methylbenzamido)-benzene]	–	17	–	–	LD50 (Acute toxicity in mice; [3]): 88 mg/kg; LD50 (Acute toxicity in mice; oral, 1% gum arabic suspension, 10 days, Miller and Tainter Method): 5100 mg/kg; Percent Death Rate ([2]; 200 mg/kg): 0%; Percent Perforating Ulcers ([2]; 200 mg/kg): 0%
Cc1ccc(C(=O)Nc2ccc(C(=O)NCCCN(C)C)c(NC(=O)c3ccc(C)cc3)c2)cc1 [1-[N-(3'-dimethylaminopropyl)-carbamoyl]-2,4-bis(4"-methylbenzamido)-benzene]	1.0	19	3.0 ± 1.4	60%	–
